Results from patent US9107926B2, “Mutant selectivity and combinations of a phosphoinositide 3-kinase inhibitor compound and chemotherapeutic agents for the treatment of cancer” (Genentech, Inc., priority 2012, dated 2015).
pEC50: −log10 of the molar value.

Key:
HCC1954 = test: CellTiter-Glo cell proliferation assay; format: cell-based; settings: Homo sapiens, Breast, Kinase-HOM.1047H > L
Method: (§2) Cell Culture Medium: RPMI or DMEM high glucose, 10% Fetal Bovine Serum, 2 mM L-Glutamine, P/S. Incubate O/N (overnight) at 37° C., 5% CO2.
(§3) Drug Addition to Cells, Cell Plate (1:10 dilution): Add 6 μl of media+compound directly to cells (54 μl of media on the cells already). Incubate 3 days at 37° C., 5% CO2 in an incubator that will not be opened often.
(§4) Day 5—Develop Plates, Thaw Cell Titer Glo Buffer at room temperature: Remove Cell Plates from 37° C. and equilibrate to room temperature for about 30 minutes. Add Cell Titer-Glo® Buffer to Cell Titer-Glo® Substrate (bottle to bottle). Add 30 μl Cell Titer-Glo® Reagent (Promega cat.#G7572) to each well of cells. Place on plate shaker for about 30 minutes. Read luminescence on Analyst HT Plate Reader (half second per well).

C32 = test: CellTiter-Glo cell proliferation assay; format: cell-based; settings: Homo sapiens, Melanoma, PTEN/B-Raf
OVCAR3 = test: CellTiter-Glo cell proliferation assay; format: cell-based; settings: Homo sapiens, OVCAR-3, Ovarian, WT
H1793 = test: CellTiter-Glo cell proliferation assay; format: cell-based; settings: Homo sapiens, NCI-H1793, Lung(NSCLC), WT
H2122 = test: CellTiter-Glo cell proliferation assay; format: cell-based; settings: Homo sapiens, NCI-H2122, Lung(NSCLC), K-RAS
HOP62 = test: CellTiter-Glo cell proliferation assay; format: cell-based; settings: Homo sapiens, HOP-62, Lung(NSCLC), K-RAS
H2171 = test: CellTiter-Glo cell proliferation assay; format: cell-based; settings: Homo sapiens, NCI-H2171, Lung(SC), K-RAS
HCC-1419 = test: CellTiter-Glo cell proliferation assay; format: cell-based; settings: Homo sapiens, HCC1419, Breast, WT
AU565 = test: CellTiter-Glo cell proliferation assay; format: cell-based; settings: Homo sapiens, Breast, HER2 Amplified
H647 = test: CellTiter-Glo cell proliferation assay; format: cell-based; settings: Homo sapiens, NCI-H647, Lung(NSCLC), K-RAS
H1048 = test: CellTiter-Glo cell proliferation assay; format: cell-based; settings: Homo sapiens, NCI-H1048, Lung(SC), Kinase-HET.1047H > R, HET.391I > M
G96 = test: CellTiter-Glo cell proliferation assay; format: cell-based; settings: Glioma, WT
PI3K alpha H1047R mutant = PI3K alpha H1047R mutant (Homo sapiens, UniProt P42336, H1047R); settings: relative to PI3K alpha
Sequence of PI3K alpha H1047R mutant (P42336 whole entry H1047R): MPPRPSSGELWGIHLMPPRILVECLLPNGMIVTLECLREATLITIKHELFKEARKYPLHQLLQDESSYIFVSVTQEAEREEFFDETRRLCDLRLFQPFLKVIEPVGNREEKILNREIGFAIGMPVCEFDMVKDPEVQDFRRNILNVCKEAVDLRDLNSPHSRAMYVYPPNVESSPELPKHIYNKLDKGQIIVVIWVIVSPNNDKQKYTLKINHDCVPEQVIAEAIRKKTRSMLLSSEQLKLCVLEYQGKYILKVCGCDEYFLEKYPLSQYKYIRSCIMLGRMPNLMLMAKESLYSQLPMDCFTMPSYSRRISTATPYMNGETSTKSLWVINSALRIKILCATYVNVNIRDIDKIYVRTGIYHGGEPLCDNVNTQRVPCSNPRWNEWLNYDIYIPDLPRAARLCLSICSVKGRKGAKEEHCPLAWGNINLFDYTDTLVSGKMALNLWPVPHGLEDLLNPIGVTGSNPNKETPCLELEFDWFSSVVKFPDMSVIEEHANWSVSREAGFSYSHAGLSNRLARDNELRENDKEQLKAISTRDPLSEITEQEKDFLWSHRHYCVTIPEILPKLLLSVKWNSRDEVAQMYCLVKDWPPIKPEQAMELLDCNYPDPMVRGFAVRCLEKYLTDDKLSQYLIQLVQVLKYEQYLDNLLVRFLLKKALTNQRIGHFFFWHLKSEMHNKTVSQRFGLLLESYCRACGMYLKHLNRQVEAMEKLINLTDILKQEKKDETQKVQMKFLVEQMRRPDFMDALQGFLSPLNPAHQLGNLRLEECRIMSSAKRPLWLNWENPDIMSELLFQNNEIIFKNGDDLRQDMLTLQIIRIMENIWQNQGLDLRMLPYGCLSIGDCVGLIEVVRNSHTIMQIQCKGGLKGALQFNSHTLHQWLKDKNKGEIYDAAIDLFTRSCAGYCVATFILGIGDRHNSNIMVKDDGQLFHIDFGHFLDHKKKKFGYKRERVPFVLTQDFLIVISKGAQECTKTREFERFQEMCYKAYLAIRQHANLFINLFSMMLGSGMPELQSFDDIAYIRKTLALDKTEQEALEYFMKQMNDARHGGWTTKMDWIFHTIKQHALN
Sequence of PI3K alpha H1047R mutant (P27986 whole entry partner): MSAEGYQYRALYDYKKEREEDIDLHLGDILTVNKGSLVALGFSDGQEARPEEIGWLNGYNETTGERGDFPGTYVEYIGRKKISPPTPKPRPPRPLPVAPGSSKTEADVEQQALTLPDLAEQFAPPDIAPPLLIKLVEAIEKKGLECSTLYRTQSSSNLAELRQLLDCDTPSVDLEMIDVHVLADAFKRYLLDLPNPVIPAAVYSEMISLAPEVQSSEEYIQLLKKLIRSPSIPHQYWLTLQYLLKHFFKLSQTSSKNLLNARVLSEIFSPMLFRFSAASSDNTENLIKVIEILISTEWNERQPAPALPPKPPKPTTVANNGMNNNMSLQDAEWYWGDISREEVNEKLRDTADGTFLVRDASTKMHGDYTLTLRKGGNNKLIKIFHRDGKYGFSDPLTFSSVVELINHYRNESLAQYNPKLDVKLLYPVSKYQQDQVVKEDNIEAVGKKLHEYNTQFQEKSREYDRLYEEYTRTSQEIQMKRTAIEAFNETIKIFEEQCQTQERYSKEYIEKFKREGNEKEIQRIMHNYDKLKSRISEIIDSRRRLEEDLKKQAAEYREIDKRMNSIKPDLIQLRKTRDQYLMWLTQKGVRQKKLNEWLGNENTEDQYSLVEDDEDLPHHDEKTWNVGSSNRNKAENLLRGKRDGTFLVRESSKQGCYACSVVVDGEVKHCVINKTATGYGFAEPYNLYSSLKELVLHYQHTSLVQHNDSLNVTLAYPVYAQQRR
Method: After an incubation time of 30 minutes at room temperature, the reactions were stopped by the addition of GRP-1 and PIP3-TAMRA probe (Echelon-Inc., Salt Lake City, Utah.) 100 nM and 5 nM final concentrations respectively. Read with standard cut-off filters for the rhodamine fluorophore (λex=530 nm; λem=590 nm) in 384-well black low volume Proxiplates® (PerkinElmer, Wellesley, Mass.) Fluorescence polarization values were plotted as a function of the protein concentration. EC50 values were obtained by fitting the data to a four-parameter equation using KaleidaGraph® software (Synergy software, Reading, Pa.). This experiment also establishes the appropriate protein concentration to use in subsequent competition experiments with inhibitors.
After an incubation time of 30 minutes at room temperature, the reactions were stopped by the addition of GRP-1 and PIP3-TAMRA probe (Echelon-Inc., Salt Lake City, Utah.) 100 nM and 5 nM final concentrations respectively.
The compound was serially diluted in 100% DMSO. The kinase reaction was incubated for 1 h at room temperature, and the reaction was terminated by the addition of PBS. IC50 values were subsequently determined using sigmoidal dose-response curve fit (variable slope).

BT474 = test: CellTiter-Glo cell proliferation assay; format: cell-based; settings: Homo sapiens, BT-474, Breast, HER2 Amplified
CAL-148 = test: CellTiter-Glo cell proliferation assay; format: cell-based; settings: Homo sapiens, Breast, Kinase(HET.1047H > R)/-PTEN
Method: as §2, §3, §4

[1] = system: 537 MEL melanoma cancer tumor xenografts; test: In vivo mouse tumor xenograft efficacy; design: species or system mice; settings: PO daily (QD), 21 days
Method: (§1) Xenografts were initiated with cancer cells. […] Volume was calculated using the formula: […]

[2] = system: KPL4 breast tumor xenografts; test: In vivo mouse tumor xenograft efficacy; design: species or system mice
Method: as §1

[3] = system: 22RV1 prostate cancer tumor xenografts; test: In vivo mouse tumor xenograft efficacy; design: species or system mice; settings: PO daily (QD), 24 days
Method: as §1

[4] = system: MCF-7 neo/HER2 breast cancer tumor xenografts; test: In vivo mouse tumor xenograft efficacy; design: species or system mice; settings: for % TGI@ day 21: QD
Method: as §1

[5] = system: HM-7 colorectal cancer tumor xenografts; test: In vivo mouse tumor xenograft efficacy; design: species or system mice
Method: as §1

[6] = system: PC3 prostate cancer tumor xenografts; test: In vivo mouse tumor xenograft efficacy; design: species or system mice
Method: as §1

[7] = system: NCI-H1975 non-small cell lung cancer (NSCLC) tumor xenografts; test: In vivo mouse tumor xenograft efficacy; design: species or system mice; settings: PO daily (QD), 24 day treatment period; versus vehicle
Method: as §1

CAMA-1 = test: CellTiter-Glo cell proliferation assay; format: cell-based; settings: Homo sapiens, Breast, PTEN*
H441 = test: CellTiter-Glo cell proliferation assay; format: cell-based; settings: Homo sapiens, NCI-H441, Lung(NSCLC), K-RAS
Detroit562 = test: CellTiter-Glo cell proliferation assay; format: cell-based; settings: Homo sapiens, Detroit 562, Head/Neck, Kinase-H1047R
H2030 = test: CellTiter-Glo cell proliferation assay; format: cell-based; settings: Homo sapiens, NCI-H2030, Lung(NSCLC), K-RAS
H460 = test: CellTiter-Glo cell proliferation assay; format: cell-based; settings: Homo sapiens, NCI-H460, Lung(NSCLC), KRAS/HEt.545E > K
IGROV1 = test: CellTiter-Glo cell proliferation assay; format: cell-based; settings: Homo sapiens, IGROV-1, Ovarian, Kinase-HET.1069O > W
Method: as §2, §3, §4

H1299 = test: CellTiter-Glo cell proliferation assay; format: cell-based; settings: Homo sapiens, NCI-H1299, Lung(NSCLC), N-RAS
HCC-1428 = test: CellTiter-Glo cell proliferation assay; format: cell-based; settings: Homo sapiens, HCC1428, Breast, WT
MO59K = test: CellTiter-Glo cell proliferation assay; format: cell-based; settings: Glioma, PTEN/KRAS
888-MEL = test: CellTiter-Glo cell proliferation assay; format: cell-based; settings: Homo sapiens, Melanoma, B-Raf
MCF7-neo/HER2 = test: CellTiter-Glo cell proliferation assay; format: cell-based; settings: Breast, Helical-HET.545E > K
Method: as §2, §3, §4

TOV21GX1 = test: CellTiter-Glo cell proliferation assay; format: cell-based; settings: Ovarian, PTEN/HET.1047H > Y
HCC-2218 = test: CellTiter-Glo cell proliferation assay; format: cell-based; settings: Homo sapiens, HCC2218, Breast, WT
HCC-202 = test: CellTiter-Glo cell proliferation assay; format: cell-based; settings: HCC202, Breast, Helical-HET.545E > K, HET.866L > F, HET.391I > M
A375 = test: CellTiter-Glo cell proliferation assay; format: cell-based; settings: Homo sapiens, A-375, Melanoma, B-Raf

## Cc1nc(-c2cn3c(n2)-c2ccc(-c4cnn(C(C)(C)C(N)=O)c4)cc2OCC3)n(C(C)C)n1 [GDC-0032, 2-(4-(2-(1-isopropyl-3-methyl-1H-1,2,4-triazol-5-yl)-5,6-dihydrobenzo[f]imidazo[1,2-d][1,4]oxazepin-9-yl)-1H-pyrazol-1-yl)-2-methylpropanamide]
HCC1954
  pEC50: 6.99
C32
  pEC50: 5.24
OVCAR3
  pEC50: 6.40
H1793
  pEC50: 5.70
H2122
  pEC50: 6.44
HOP62
  pEC50: 5.51
H2171
  pEC50: 5.84
HCC-1419
  pEC50: 7.34
AU565
  pEC50: 7.03
H647
  pEC50: 5.04
H1048
  pEC50: 7.85
G96
  pEC50: 6.70
PI3K alpha H1047R mutant
  PI3K alpha H1047R mutant: 0.4x
BT474
  pEC50: 7.08
CAL-148
  pEC50: 6.43
[1]
  tumor volume change: dose-dependent decrease in tumor volume
[2]; 25 mg/kg, end of treatment on day 21, versus vehicle
  tumor response: increased tumor regressions
[2]; PO daily (QD), 21 days, SCID beige mice
  tumor volume change: dose dependent decrease in tumor volume
[3]
  tumor volume change: dose-dependent decrease in tumor volume
[4]; 22.5 mg/kg, after 10 days of treatment, versus vehicle
  tumor response: increased tumor regressions
[4]; PO daily (QD), 20 days, nude mice
  tumor volume change: dose dependent decrease in tumor volume
[4]; 5.0 mg/kg
  % TGI@ day 21: 57%
[4]; 10 mg/kg
  % TGI@ day 21: 83%
[4]; 20 mg/kg
  % TGI@ day 21: 83%
[5]; 25 mg/kg, end of treatment on day 7, versus vehicle
  tumor response: increased tumor regressions
[5]; PO daily (QD), 7 days
  tumor volume change: dose dependent decrease in tumor volume
[6]; doses <12.5 mg/kg, daily dosing for 14 days
  anti-tumor efficacy: not efficacious
[6]; highest dose tested (25 mg/kg), daily, 14 days
  anti-tumor response: tumor stasis
[7]
  tumor volume change: dose-dependent decrease in tumor volume
CAMA-1
  pEC50: 5.25
H441
  pEC50: 5.00
Detroit562
  pEC50: 7.24
H2030
  pEC50: 5.64
H460
  pEC50: 6.22
IGROV1
  pEC50: 7.51
H1299
  pEC50: 5.76
HCC-1428
  pEC50: 5.00
MO59K
  pEC50: 5.30
888-MEL
  pEC50: 5.00
MCF7-neo/HER2
  pEC50: 6.75
TOV21GX1
  pEC50: 5.00
HCC-2218
  pEC50: 7.05
HCC-202
  pEC50: 7.74
A375
  pEC50: 5.00
